# Measurements from patent US5455267A, “Chromone derivative, and aldose reductase inhibitor comprising said compound as active component” (Tsumura & Co., priority 1990, dated 1995).
# Molecular target: T1, aldose reductase (Rattus norvegicus, UniProt P07943)
# T1 construct: The crystalline lenses were homogenized in 135 mM sodium-potassium-phosphate buffer (pH 7.0) and centrifuged; from tissue; host or cells: lens of 6 week-old Wistar rats (30,000 rpm supernatant of homogenate)
# Assay: Determination of Aldose Reductase Activity (In Vitro)
# Format: biochemical, rat (Wistar)
# Details: Table 3; for inhibition at 10 µM: at the concentration of 10 μM, read-out: Inhibition rate %; for IC50: rat lens aldose reductase, 20 mM glucose, 30 min, 30° C, pH 7.0, read-out: 50% Inhibition Conc. [IC50 (M)]
# Experimental: 6 week-old Wistar rats were sacrificed under ether anesthesia, and immediately lenses were removed and stored at -20° C. The crystalline lenses were homogenized in 135 mM sodium-potassium-phosphate buffer (pH 7.0) and centrifuged for 30 min. at 30,000 rpm. The supernatant was used as an aldose-reductase solution. The above procedure was carried out at 4° C. The enzyme solution was stored at -20° C.
# The measurement of aldose reductase activity was conducted according to the method as described by Duffane et al. (Biochemical Medicine, 32:99-105 (1984)).
# That is, 100 gl of the above enzyme solution and 100 gl of a solution prepared by dissolving a compound obtained in the following example to a final concentration of from 1.0×10^-5 to 4.0×10^-7 M in dimethylsulfoxide (DMSO) were added to 800 gl of 135 mM sodium-potassium-phosphate buffer (pH 7.0) containing 100 mM lithium sulfate, 0.03 mM NADPH (reduced form of nicotinamide adeninc dinucleotide phosphate) and 20 mM glucose as a substrate. The sample was allowed to react for 30 min. at 30° C. The reaction was stopped by addition of 0.3 ml of 0.5N hydrochloric acid. The NADP (oxided form of nicotinamide adenine dinucleotide) formed during the above reaction was converted into a fluorescent substance by addition of 1 ml of 6N sodium hydroxide containing 10 mM imidazole. 30 min. thereafter, the sample was measured for fluorescence intensity at the fluorescence wavelength of 460 nm (excitation wavelength: 360 nm) using a fluorescence photometer F-4000 (manufactured by Hitachi, Ltd.) at room temperature. A sample containing DMSO in place of the present compound was used as a control, and its fluorescence intensity was determined in the same manner as above.
# Aldose reductase is an enzyme to convert DL-glyceraldehyde or glucose into polyol in the presence of NADPH as a coenzyme. As this reaction proceeds, NADPH is converted into NADP, so that the smaller amount of NADP formed indicates higher inhibition of aldose reductase. […]
Compound,inhibition at 10 µM [%],IC50 [M]
"COc1c(OC(C)=O)cc2oc(Sc3ccc(O)cc3)cc(=O)c2c1OC(C)=O [Compound 1 obtained in Example 28, 5,7-diacetoxy-2-(4-hydroxyphenylthio)-6-methoxychromone]",95.4,1.7e-07
"COc1c(OC(C)C)cc2oc([S+]([O-])c3ccc(O)cc3)cc(=O)c2c1OC (stereo not shown) [Compound 1 obtained in Example 34, 5,6-dimethoxy-2-(4-hydroxyphenylsulfinyl)-7-isopropoxychromone]",98,4.6e-07
"COc1c(OC(C)=O)cc2oc(Sc3ccc(O)cc3)cc(=O)c2c1O [Compound 2 obtained in Example 28, 7-acetoxy-5-hydroxy-2-(4-hydroxyphenylthio)-6-methoxychromone]",95.4,3e-07
"COc1c(OC(C)C)cc2oc(S(=O)(=O)c3ccc(O)cc3)cc(=O)c2c1OC [Compound 2 obtained in Example 34, 5,6-dimethoxy-2-(4-hydroxyphenylsulfonyl)-7-isopropoxychromone]",96.6,1e-06
"COc1cc2oc(Sc3ccc(O)cc3)cc(=O)c2c(O)c1OC [Example 2, 5-hydroxy-2-(4-hydroxyphenylthio)-6,7-dimethoxychromone]",87.1,1.1e-07
"CCOc1cc2oc(Sc3ccc(O)cc3)cc(=O)c2c(OCC)c1OC [Example 11, 5,7-diethoxy-2-(4-hydroxyphenylthio)-6-methoxychromone]",98.5,4e-08
"CCCOc1cc2oc(Sc3ccc(O)cc3)cc(=O)c2c(OCCC)c1OC [Example 12, 5,7-dipropoxy-2-(4-hydroxyphenylthio)-6-methoxychromone]",93,1.5e-07
"COc1c(OC(C)C)cc2oc(Sc3ccc(O)cc3)cc(=O)c2c1OC(C)C [Example 13, 5,7-diisopropoxy-2-(4-hydroxyphenylthio)-6-methoxychromone]",93.7,1.8e-08
"CCCCOc1cc2oc(Sc3ccc(O)cc3)cc(=O)c2c(OCCCC)c1OC [Example 14, 5,7-dibutoxy-2-(4-hydroxyphenylthio)-6-methoxychromone]",86.8,1.9e-07
"CCC(C)Oc1cc2oc(Sc3ccc(O)cc3)cc(=O)c2c(OC(C)CC)c1OC (stereo not shown) [Example 15, 5,7-di-s-butoxy-2-(4-hydroxyphenylthio)-6-methoxychromone]",98.4,3.8e-08
"COc1c(OCC(C)C)cc2oc(Sc3ccc(O)cc3)cc(=O)c2c1OC(C)C [Example 17, 2-(4-hydroxyphenylthio)-7-isobutoxy-5-isopropoxy-6-methoxychromone]",95.1,1.3e-07
"COc1c(OC(C)C)cc2oc(Sc3ccc(O)c(Cl)c3)cc(=O)c2c1OC(C)C [Example 19, 2-(3-chloro-4-hydroxyphenylthio)-5,7-diisopropoxy-6-methoxychromone]",69.8,4e-06
"COc1c(OC(C)C)cc2oc(Sc3ccc(O)cc3)cc(=O)c2c1O [Example 26, 5-hydroxy-2-(4-hydroxyphenylthio)-7-isopropoxy-6-methoxychromone]",98.1,6.5e-08
"CCOc1c(OC)c(OCC=C(C)C)cc2oc(Sc3ccc(O)cc3)cc(=O)c12 [Example 31, 5-ethoxy-2-(4-hydroxyphenylthio)-6-methoxy-7-prenyloxychromone]",100,2.3e-07
"COc1cc(OC)c2c(=O)cc(Sc3ccccc3)oc2c1 [Example 41, 5,7-dimethoxy-2-phenylthiochromone]",52.4,–
"COc1cc(OC)c2c(=O)cc(Sc3ccccc3Cl)oc2c1 [Example 42, 5,7-dimethoxy-2-(2-chlorophenylthio)chromone]",47.7,–
"COc1cc(OC)c2c(=O)cc(Sc3ccccc3OC)oc2c1 [Example 46, 5,7-dimethoxy-2-(2-methoxyphenylthio)chromone]",28.4,–
"COc1cc(OC)c2c(=O)cc(Sc3ccccn3)oc2c1 [Example 58, 5,7-dimethoxy-2-(2-pyridylthio)chromone]",37.4,–
"COc1cc(OC)c2c(=O)cc(Sc3ccncc3)oc2c1 [Example 59, 5,7-dimethoxy-2-(4-pyridylthio)chromone]",37.1,–
"COc1cc(OC)c2c(=O)cc(Sc3nnc(N)s3)oc2c1 [Example 63, 2-(2-amino-5-thiadiazolylthio)-5,7-dimethoxychromone]",31.1,–
"CC(C)Oc1cc(OC(C)C)c2c(=O)cc(Sc3ccc(O)cc3)oc2c1 [Example 69, 5,7-diisopropoxy-2-(4-hydroxyphenylthio)chromone]",97.7,–
"COc1cc(O)c2c(=O)cc(SCc3ccc(O)cc3)oc2c1 [Example 74, 5-hydroxy-2-(4-hydroxybenzylthio)-7-methoxychromone]",52.1,–
"O=c1cc(SCc2ccc(O)cc2)oc2cc(O)cc(O)c12 [Example 75, 5,7-dihydroxy-2-(4-hydroxybenzylthio)chromone]",43.5,–

# Next, values leading:
inhibition at 10 µM [%],IC50 [M],Compound
40,–,"COc1cc(O)c2c(=O)cc(Nc3ccc(O)cc3)oc2c1 [Compound 2 obtained in Example 77, 5-hydroxy-2-(4-hydroxyanilino)-7-methoxychromone]"
44,–,"COc1cc(OC)c2c(=O)cc(Sc3cccc(Cl)c3)oc2c1 [Example 43, 5,7-dimethoxy-2-(3-chlorophenylthio)chromone]"
36.5,–,"COc1cccc(Sc2cc(=O)c3c(OC)cc(OC)cc3o2)c1 [Example 47, 5,7-dimethoxy-2-(3-methoxyphenylthio)chromone]"
48.2,–,"COc1cc(OC)c2c(=O)cc(Sc3ccccc3N)oc2c1 [Example 49, 5,7-dimethoxy-2-(2-aminophenylthio)chromone]"
31.7,–,"COc1cc(OC)c2c(=O)cc(Sc3ccccc3C)oc2c1 [Example 52, 5,7-dimethoxy-2-(2-methylphenylthio)chromone]"
22.8,–,"COc1cc(OC)c2c(=O)cc(Sc3cccc(C)c3)oc2c1 [Example 53, 5,7-dimethoxy-2-(3-methylphenylthio)chromone]"
35.9,–,"COc1cc(OC)c2c(=O)cc(Sc3ccccc3O)oc2c1 [Example 56, 2-(2-hydroxyphenylthio)-5,7-dimethoxychromone]"
50.5,–,"COc1cc(OC)c2c(=O)cc(Sc3cccc(O)c3)oc2c1 [Example 57, 2-(3-hydroxyphenylthio)-5,7-dimethoxychromone]"
52.9,–,"COc1cc(OC)c2c(=O)cc(Sc3ccc(C(=O)O)cc3)oc2c1 [Example 64, 4-(5,7-dimethoxychromonyl-2-thio)benzoic acid]"
23.1,–,"COC(=O)c1ccc(Sc2cc(=O)c3c(OC)cc(OC)cc3o2)cc1 [Example 65, methyl 4-(5,7-dimethoxychromonyl-2-thio)benzoate]"
31.5,–,"COc1cc(OC)c2c(=O)cc(Sc3ccc(CO)cc3)oc2c1 [Example 66, 5,7-dimethoxy-2-(4-hydroxymethyl-phenylthio)chromone]"
85.5,1e-06,"COc1cc(OC)c2c(=O)cc(Oc3ccc(O)cc3)oc2c1 [Example 70, 2-(4-hydroxyphenoxy)-5,7-dimethoxychromone]"
88.7,1e-07,"COc1cc(OC)c2c(=O)cc(Sc3ccc(O)cc3)oc2c1 [Example 71, 2-(4-hydroxyphenylthio)-5,7-dimethoxychromone]"
84,1e-07,"COc1cc(O)c2c(=O)cc(Sc3ccc(O)cc3)oc2c1 [Example 72, 5-hydroxy-2-(4-hydroxyphenylthio)-7-methoxychromone]"
16.4,–,"COc1ccc(CSc2cc(=O)c3c(OC)cc(OC)cc3o2)cc1 [Example 73, 5,7-dimethoxy-2-(4-methoxybenzylthio)chromone]"
